Laboratory results: paper PMC7395176, “Retromer stabilization results in neuroprotection in a model of Amyotrophic Lateral Sclerosis” (Nature Communications, 2020)
Several values for one entry are separate records, joined by “and”; a condition that tells them apart may be missing. Equal values may be shown once.

Tests used:
[1] = tested on: SOD1^G93A-transfected Neuro2a cells; test: LDH-Glo cytotoxicity assay in SOD1G93A-transfected Neuro2a cells; type: cell-based; details: 10 µM
Excerpt: (§1) Having observed a marked improvement of viability in SOD1^G93A-transfected Neuro2a cells with VPS35 gain of function, we investigated the effect of VPS35 loss of function. We transfected Neuro2a cells with RNAi plasmids encoding a siRNA duplex for VPS35, to knockdown VPS35 and disrupt the retromer assembly. […] By including Sh56 plasmids in the transfection mix, we worsened this phenotype (Fig. 3d). […] We next assayed cytotoxicity by measuring lactate dehydrogenase (LDH) release with a LDH-Glo™ cytotoxicity assay. Cells were treated with plasmids encoding SOD1^G93A and the Sh56-RNAi sequence with or without compound 2a, while supernatants were used to measure LDH contents. Overexpression of SOD1^G93A increased LDH release by Neuro2aA cells, when compared with control cells (Fig. 3e).
LDH cytotoxicity was run on 96-well plates using LDH-Glo™ Cytotoxicity Assay (Promega). Briefly, Neuro2a cells were transfected with plasmids encoding pCMV-LacZ; pcDNA3.1(+)SOD1G93A[77] with or without VPS35 short interfering plasmids (Sh56) or compound 2a (10 µM). […] In each experiment we calculated %cytotoxicity=Exp.LDHrelease−mediumbackground/MaxLDHreleasecontrol−mediumbackground , and we run parallel positive controls treating cells with 200 µM H2O2. […]

[2] = tested on: SOD1^G93A-transfected Neuro2a cells; test: Cell viability of SOD1G93A-transfected Neuro2a cells (colorimetric assay); type: cell-based; details: 10 µM
Excerpt: The Golgi apparatus is affected in MNs from ALS patients and in cells overexpressing mutant SOD1 forms[35]–[37]. We transiently transfected Neuro2a cells with plasmids encoding SOD1^G93A before treatment with compound 2a. […] We next determined the viability of Neuro2a cells transfected with SOD1^G93A and exposed to compound 2a using a colorimetric assay. Controls cells received LacZ plasmids. […] We observed a slight, but not significant, reduction of cell viability in […] Neuro2a cells (Fig. 3b). […] The increased cell viability provided by compound 2a could result from unknown, nonspecific off-target effects. Therefore, we used plasmids encoding VPS35 to increase/stabilize the retromer complex. […] However, this phenotype was reverted co-transfecting VPS35 and SOD1^G93A plasmids (Fig. 3c).
as §1, with “Cells were treated with plasmids encoding SOD1^G93A and the Sh56-RNAi sequence with or without compound 2a, while supernatants were used to measure LDH contents. Overexpression of SOD1^G93A increased LDH release by Neuro2aA cells, when compared with control cells (Fig. 3e).” left out

Sortilin = Sortilin fluorescence in MNs of treated G93A mice; type: in vivo; details: 10 mg/kg, day 100
Excerpt: We next asked whether increasing VPS35/26 protein levels is sufficient to increase retromer functionality. CI-MPR is unstable in VPS26-knockout cells, and we observed a substantial reduction of CI-MPR MFI levels in MNs of vehicle-treated G93A mice compared with WT litters (Fig. 6c). […] Sortilin encodes a receptor belonging to the Vps10 family involved in Frontotemporal Dementia (FTD)[45], which shares functional homologies with MPRs and is another retromer cargo[46].
Fluorescence intensity levels of VPS35, VPS26, CI-MPR, Sortilin, CTSD and Ubiquitin were calculated using NHI-Image J software (US National Institutes of Health) according to the following protocol: stacks of confocal images were used to generate the maximal projections using the Leica Application Suite X (2.0.0.14332) software and then postprocessed by NHI-Image J to crop single NeuN^+ MNs from the ventral horn of the spinal cord. We next performed background (calculated on adjacent slices only receiving secondary antibodies) subtraction for each channel, before applying the NHI-Image J mean filter (with radius 2.0 pixels) to calculate mean NeuN fluorescence levels in individual MNs. Using this approach, we established a region of interest (ROI) to gate single MNs. On this ROI, we measured mean fluoresce levels (MFI) of target proteins.

Neuro2a cells = test: Neuro2a cell survival (CCK8) with increasing 2a concentrations; type: cell-based; details: 48 h
Protocol: We assessed the cytotoxicity of compound 2a, measuring survival of Neuro2a cells exposed to increasing 2a concentrations. […] We next checked for toxic effects of compound 2a in primary neuronal cultures coupled with Micro Electrode Array (MEA) devices. Mouse cortical neurons (E16.5) were plated on MEAs, kept in culture for 14 days to develop firing activity and recorded in presence of 2a.
Cell survival experiments were run on 96-well plates using Cell Counting Kit-8 (CCK8) survival kit (96992-Sigma–Aldrich) according the manufacturer’s recommendations. Compound 2a cytotoxicity was tested on Neuro2a cells receiving increasing amounts of compound 2a (1, 10, 50, 100, 200, 500, and 1000 µM) for 48 h. Data were acquired using an Epoch spectrophotometer equipped with the GEN5 (2.03.1) software (Agilent).

VPS26 = VPS26 / VPS26b levels in MNs and lumbar SC of treated G93A mice; type: in vivo; details: 10 mg/kg, day 100
VPS26b = test: Western blot for VPS26b in treated Neuro2a cells; type: cell-based; details: 10 µM, 48 h, WB
Protocol: Compound 2a increases VPS26b and VPS29 in Neuro2a […]
a,WBs forVPS26b, VPS29 and β-Tubulin in vehicle- and compound 2a-treated Neuro2a cells(10 μM, 48h, 3x10^5 cells/well).Quantitative analyses of blots (means ± SD) are shown inhistograms (control:n=4 independent wells, 2a: n=5 independent wells examined in one experiment, p<0.0001 for all the comparisons. Two-tailed Student’s test was used to determine the statisticalsignificanceof data, ***p<0.0001
(1 picture or pasted object on this page, not shown here)

Question: What does the source list for `NC(N)=N/N=C/c1cccc(/C=N/N=C(N)N)c1` [compound 2a, phenyl-1,3-bis-guanylhydrazone]?
Answer: LDH release ([1]; Neuro2a transfected with SOD1G93A and Sh56 plasmids): high LDH release was observed; LDH release ([1]; SOD1G93A-transfected Neuro2a, 48 h): significantly reduced LDH release; cell viability [2]: cell viability was restored; Sortilin MFI levels in MNs (Sortilin): significantly increased; cell survival (Neuro2a cells; 10 μM): did not affect cell survival; LD50 (Neuro2a cells; 1–1000 µM): 257.9 µM and ~260 µM; VPS26b levels in lumbar SC extracts (WB) (VPS26): increase VPS35 and VPS26b levels; VPS26b protein levels (VPS26b): significantly increased
